Data on 34 molecules can be found in patent US11759461B2, “Small molecule inhibitors of cancer stem cells and mesenchymal cancer types” (The Scripps Research Institute, priority 2017, dated 2023).

Assay [1] deals with T1, recombinant full length VIM (Homo sapiens, UniProt P08670).
T1 construct: 1-PAP labels recombinant full length VIM in vitro
The assay is described as follows: In vitro photo-affinity labeling of recombinant proteins with 1-PAP. It is filed as binding. How it is done:
To identify the relevant cellular target of Compound 1, we incubated live FOXC2-HMLER cells with 2.5 μM 1-PAP, as prepared in Example 5, for 15 minutes and subjected these cells to UV irradiation. A sample containing both 1-PAP and a 20-fold molar excess of free Compound 1 was used to distinguish specific labeling events.
VIM consists of a long rod domain, which forms a coiled coil in the presence of other VIM molecules, as well as head and tail domains. To identify which portion of the protein was the relevant site of 1-PAP labeling, we expressed these domains as GST fusion proteins. […] VIM is one of four type III intermediate filament proteins, whose members additionally include Peripherin, glial fibrillary acidic protein (GFAP), and Desmin, which share 59%, 61%, and 62% sequence similarity to VIM respectively (SIM alignment, ExPASy) (E. Fuchs et al., Annu. Rev. Biochem. 63 (1994) 345-382).

Assay [2] relates to FOXC2-expressing HMLER cells. Description: Cell Titer Glo viability of FOXC2-HMLER cells (high throughput screen and 10-point response). The assay is classed as cell-based. The note with it: Homo sapiens. In short, it runs like this:
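FOXC2-HMLER cells (HMLER run in parallel) seeded at 1,000 cells/well in MEGM, attached 1 h, then given compound in DMSO (2 μM in the screen). After 72 h, viability was read by Cell Titer Glo luminescence.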
A general note: Cellular ATP, detected with luciferase, serves as a proxy for viable cell number.

Assay [3] concerns FOXC2-HMLER cells. Description: Confocal imaging of thymidine synced FOXC2-HMLER cells at metaphase. The assay is classed as cell-based, human. An excerpt:
Because Compound 1 induces a hyper-phosphorylated VIM phenotype, we sought to determine if Compound 1's engagement of VIM might interfere at an alternative stage of mitosis. We therefore performed time course confocal imaging studies of Compound 1 treated FOXC2-HMLER cells after their release from thymidine blocking-based cell cycle synchronization.
Compound 1 treatment also disrupted the ability of β-tubulin to faithfully form the fine spindle microtubules of the mitotic spindle, instead resulting in a compressed phenotype with radiating projections connecting unaligned chromosomes. To assess the uniqueness of this phenotype, we evaluated the metaphase phenotypes of other chemical inhibitors which have shown to alter mitotic progression. These included inhibitors of centromere-associated protein E (CENP-E, also called kinesin-7, GSK92395), kinesin spindle protein (KSP, also called Eg5, Ispinesib), polo like kinases (PLK1/2/3, BI2536), and aurora kinases (AURKA/B/C, VX-680).

Assay [4] concerns control HMLER cells. The assay is described as follows: Cell Titer Glo viability of control HMLER cells. The assay is classed as cell-based. Particulars: Homo sapiens; 72-hour incubation; read-out: control HMLER IC50. An excerpt: An engineered cancer cell line HMLER as an isogenic screening system was employed to identify compounds that are selectively toxic to the FOXC2 positive genotype. HMLER cells are derived from mammary epithelial cells (HMECs), but are virally transformed with the […] oncogene (G12V), human telomerase reverse transcriptase (hTERT), and SV40 large-T antigen (B. Elenbaas, B. et al. Genes Dev. 15 (2001) 50-65). Expression of these genes endows HMLER cells with functional immortality and tumorigenic potential at high seeding number (>10^6 cells; Hollier (2013)). […]
For high throughput screening, FOXC2-HMLER and HMLER cells were plated at 10^3 cells per well in white 384-well plates in 50 μL of MEGM medium (Lonza). […] After 72-hour incubation, 30 μL of a Cell Titer Glo solution (diluted 1:6 in water, Promega) was dispensed into each well and luminance values were recorded using an Envision plate reader. […]
More specifically, in the high throughput screening assay above, each cell line was plated at 1,000 cells per well in 384-well plates, treated for 72 hours with 2 μM of test compound, and the viability of each line was determined in parallel by Cell Titer Glo (Promega) luminance measurements. […]

The mark [5] stands for this setting: scored relative to parent compound 4, 72 hours, read-out: Activity Score, inhibition of FOXC2-expressing HMLER cells by Formula IV compounds.

The structures appear in SMILES notation. pIC50: −log10 of the molar value. Like-named read-outs stand apart in the source and are kept apart here. Some results are limits rather than exact numbers.

T1 sequence (P08670 whole entry): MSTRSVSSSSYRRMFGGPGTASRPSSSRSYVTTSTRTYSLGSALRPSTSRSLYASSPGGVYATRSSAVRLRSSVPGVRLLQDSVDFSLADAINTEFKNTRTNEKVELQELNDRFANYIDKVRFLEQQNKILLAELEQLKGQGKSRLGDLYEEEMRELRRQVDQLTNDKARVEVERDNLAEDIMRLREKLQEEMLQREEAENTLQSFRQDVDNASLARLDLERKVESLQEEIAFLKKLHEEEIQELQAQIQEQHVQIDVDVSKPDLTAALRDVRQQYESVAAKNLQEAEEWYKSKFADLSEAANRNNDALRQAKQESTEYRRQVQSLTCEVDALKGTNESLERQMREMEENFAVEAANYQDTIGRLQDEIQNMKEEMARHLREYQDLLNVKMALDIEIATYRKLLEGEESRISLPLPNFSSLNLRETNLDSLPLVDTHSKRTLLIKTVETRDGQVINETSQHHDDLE

In the case of `CC1(CC[C@H](NC(=O)CCOCCOCCNC(=O)CCCC[C@@H]2SC[C@@H]3NC(=O)N[C@@H]32)C(=O)NCCOCCOCCOc2cc(Cl)cc(N3CCN(c4cnnc5c(Cl)cccc45)CC3)c2)N=N1` [Compound 1-PAP, N—((S)-1-(3-chloro-5-(4-(8-chlorocinnolin-4-yl)piperazin-1-yl)phenoxy)-11-(2-(3-methyl-3H-diazirin-3-yl)ethyl)-10,13-dioxo-3,6,16,19-tetraoxa-9,12-diazahenicosan-21-yl)-5-((3aS,4S,6aR)-2-oxohexahydro-1H-thieno[3,4-d]imidazol-4-yl)pentanamide], in assay [1] (VIM vs Peripherin, GFAP, Desmin recombinant preparations), the “labeling of type III intermediate filament proteins” value is “labeled VIM exclusively”. For the same molecule, the “labeling of VIM domains expressed as GST fusion proteins” value in assay [1] (head, rod and tail domains) was “binds specifically and potently to the rod domain of VIM”.

With `Cc1ccccc1N1CCN(S(=O)(=O)c2c(C)nn(-c3ccc(-c4ccccc4)nn3)c2C)CC1` [Compound 4AR], the pIC50 in assay [2] (setting [5]) is below 4.70.

Consider `Cc1ccc(N2CCN(S(=O)(=O)c3c(C)nn(-c4ccc(-c5ccccc5)nn4)c3C)CC2)cc1` [Compound 4AS], for which, in assay [2] (setting [5]), the pIC50 was below 4.70.

As for `Cc1ccc(-c2ccc(-n3nc(C)c(S(=O)(=O)N4CCN(c5ccccc5)CC4)c3C)nn2)cc1` [Compound 4AT], the pIC50 in assay [2] (setting [5]) is below 4.70.

`Cc1ccc(-c2ccc(-n3nc(C)c(S(=O)(=O)N4CCN(C(C)C)CC4)c3C)nn2)cc1` [Compound 4AU]: in assay [2] (setting [5]), the pIC50 is below 4.70.

`Cc1c(S(=O)(=O)N2CCN(c3cc(-c4cccc(F)c4)ncn3)CC2)cnn1C(F)F` [Compound 4A]: the pIC50 in assay [2] (setting [5]) was above 6.00.

With `Cc1ccccc1-c1cc(N2CCN(S(=O)(=O)c3cnn(C(F)F)c3C)CC2)ncn1` [Compound 4B], in assay [2] (setting [5]), the pIC50 was above 6.00.

With `COc1cccc(-c2cc(N3CCN(S(=O)(=O)c4cnn(C(F)F)c4C)CC3)ncn2)c1` [Compound 4C], the pIC50 in assay [2] (setting [5]) was above 6.00.

As to `Cc1ccc(C)c(N2CCN(S(=O)(=O)c3c(C)nn(C)c3C)CC2)c1` [Compound 4D], the pIC50 in assay [2] (setting [5]) is above 6.00.

On to `Cc1ccc(-c2cc(N3CCN(S(=O)(=O)c4ccccc4C)CC3)ncn2)cc1` [Compound 4E], for which the pIC50 in assay [2] (setting [5]) was above 6.00.

For `Cc1cccc(N2CCN(S(=O)(=O)c3c(C)nn(-c4ccc(F)cc4)c3C)CC2)c1C` [Compound 4F], in assay [2] (setting [5]), the pIC50 is above 6.00.

For the molecule `Cc1nn(-c2ccc(Cl)cc2)c(C)c1S(=O)(=O)N1CCN(c2ccccn2)CC1` [Compound 4G], the pIC50 in assay [2] (setting [5]) was above 6.00.

With `CC(=O)c1ccc(N2CCN(S(=O)(=O)c3c(C)nn(-c4ccc(C)cc4)c3C)CC2)cc1` [Compound 4H], the pIC50 in assay [2] (setting [5]) was above 6.00.

Turning to `Cc1cccc(-c2cc(N3CCN(S(=O)(=O)c4ccccc4C)CC3)ncn2)c1` [Compound 4I], the pIC50 in assay [2] (setting [5]) was 4.70 to 6.00.

As to `Cc1nn(-c2ccccc2)c(C)c1S(=O)(=O)N1CCN(c2ccccn2)CC1` [Compound 4J], the pIC50 in assay [2] (setting [5]) is 4.70 to 6.00.

Take `Cc1nn(-c2ccc(F)cc2)c(C)c1S(=O)(=O)N1CCN(c2ncccn2)CC1` [Compound 4K]: the pIC50 in assay [2] (setting [5]) is 4.70 to 6.00.

For `Cc1ccc(-n2nc(C)c(S(=O)(=O)N3CCN(c4ccccc4)CC3)c2C)cc1` [Compound 4L], the pIC50 in assay [2] (setting [5]) is 4.70 to 6.00.

Turning to `Cc1ccc(-n2nc(C)c(S(=O)(=O)N3CCN(c4ncccn4)CC3)c2C)cc1` [Compound 4M], the pIC50 in assay [2] (setting [5]) was 4.70 to 6.00.

With `Cc1nn(C)c(C)c1S(=O)(=O)N1CCN(c2cccc(Cl)c2)CC1` [Compound 4N], the pIC50 in assay [2] (setting [5]) is below 4.70.

Take `Cc1cccc(N2CCN(S(=O)(=O)c3c(C)nn(C)c3C)CC2C)c1` (stereo not shown) [Compound 4O]: the pIC50 in assay [2] (setting [5]) was below 4.70.

On to `Cc1nn(C)c(C)c1S(=O)(=O)N1CCN(c2ccccc2F)CC1` [Compound 4P], for which the pIC50 in assay [2] (setting [5]) is below 4.70.

Consider `Cc1nn(C)c(C)c1S(=O)(=O)N(CC(=O)N1CCN(c2ncccn2)CC1)c1ccc(C(C)C)cc1` [Compound 4Q], for which, in assay [2] (setting [5]), the pIC50 is below 4.70.

Take `Cc1cccc(-c2cc(N3CCN(S(=O)(=O)c4ccc(C)cc4C)CC3)ncn2)c1` [Compound 4R]: the pIC50 in assay [2] (setting [5]) is below 4.70.

As for `Cc1cccc(-c2cc(N3CCN(S(=O)(=O)c4cnn(C(F)F)c4C)CC3)ncn2)c1` [Compound 4S], the pIC50 in assay [2] (setting [5]) was below 4.70.

In the case of `Cc1c(S(=O)(=O)N2CCN(c3cc(-c4ccc(F)cc4)ncn3)CC2)cnn1C(F)F` [Compound 4T], the pIC50 in assay [2] (setting [5]) is below 4.70.

On to `Cc1ccc(-c2cc(N3CCN(S(=O)(=O)c4ccc(C)cc4C)CC3)ncn2)cc1` [Compound 4U], for which the pIC50 in assay [2] (setting [5]) is below 4.70.

For the molecule `Cc1ccccc1S(=O)(=O)N1CCN(c2cc(-c3ccccc3)ncn2)CC1` [Compound 4V], the pIC50 in assay [2] (setting [5]) was below 4.70.

`Cc1ccc(S(=O)(=O)N2CCN(c3cc(-c4ccccc4)ncn3)CC2)c(C)c1` [Compound 4W]: the pIC50 in assay [2] (setting [5]) is below 4.70.

Consider `Cc1c(S(=O)(=O)N2CCN(c3cc(-c4ccccc4)ncn3)CC2)cnn1C(F)F` [Compound 4X], for which the pIC50 in assay [2] (setting [5]) is below 4.70.

In the case of `COc1ccc(-c2cc(N3CCN(S(=O)(=O)c4cnn(C(F)F)c4C)CC3)ncn2)cc1` [Compound 4Y], in assay [2] (setting [5]), the pIC50 was below 4.70.

As to `COc1ccc(F)cc1-c1cc(N2CCN(S(=O)(=O)c3cnn(C(F)F)c3C)CC2)ncn1` [Compound 4Z], the pIC50 in assay [2] (setting [5]) was below 4.70.

For the molecule `Cc1ccc(-c2cc(N3CCN(S(=O)(=O)c4cnn(C(F)F)c4C)CC3)ncn2)cc1` [Compound 4], in assay [2] (setting [5]), the pIC50 was above 6.00.

Turning to `CC(C)Oc1ccc(C(=O)N[C@H](CNC(=O)CN(C)C)Cc2ccc(-c3cn4cccc([C@H](C)O)c4n3)cc2)cc1Cl` [GSK92395], in assay [3], the “VIM filamentous structure at metaphase” value is listed as “did not induce VIM filamentous collapse” and the “chromosome alignment to the metaphase plate” value is listed as “unaligned chromosome phenotype”.

In the case of `COc1cccc2c1C(=O)c1c(O)c3c(c(O)c1C2=O)C[C@@](O)(C(=O)CO)C[C@@H]3O[C@H]1C[C@H](N)[C@H](O)[C@H](C)O1` [doxorubicin, reference compound], the pIC50 was 6.35 in assay [2] (72-hour incubation, read-out: FOXC2-HMLER IC50) and 6.57 in assay [4].
